Columns and labels:
[1] = Character of infusion reactions in the animal studies; format: in vivo
Source text: There was clear difference between the infusion reactions seen in the rats and dogs, and IgE-mediated anaphylaxis or other antigen-dependent hypersensitivity. IgE/antigen-dependent degranulation of mast cells is associated with a sustained release of larger and more heterogeneously shaped granule structures, whereas peptide-activated mast cells rapidly secrete small and relatively spherical granule structures (Gaudenzio 2016). […] In addition, the infusion reactions were also elicited by a scrambled version of OPT101 (same amino acids but in a different sequence), showing the reaction was not OPT101-dependent.

[2] = 8-week GLP repeat-dose toxicity study, 30-minute IV infusion, dogs; format: in vivo
Protocol: Rats and dogs were treated once a week for 8-weeks, by 30-minute IV infusions. The PK of OPT101 was also determined following the first and last dose in each study.

[3] = 8-week GLP repeat-dose toxicity study, 30-minute IV infusion, rats; format: in vivo
Protocol: Due to these adverse effects in the rats and dogs after a bolus IV injection, the administration of OPT101 was changed to IV infusion over 30 minutes for the definitive GLP toxicity studies. Rats and dogs were treated once a week for 8-weeks, by 30-minute IV infusions. The PK of OPT101 was also determined following the first and last dose in each study. […] The no observable adverse effect level (NOAEL) for OPT101 was considered to be the […] level. […] Due to the incidence and severity of the infusion reactions, the clinical signs were considered adverse at 100 and 400 mg/kg, but because of the lower incidence and severity at 10 mg/kg, the effects at the 10 mg/kg were considered non-adverse.

[4] = Single dose dog study focused on cardiovascular effects, 30-minute IV infusion; format: in vivo, dogs
Protocol: Since some of the clinical signs were consistent with a drop in blood pressure, a single dose dog study was done, giving doses of 0.3, 1 or 100 mg/kg by a 30-minute IV infusion, and focused on cardiovascular effects. […] The 100 mg/kg group had much more severe clinical observations compared to 1 mg/kg. These effects were associated with decreases in blood pressure and heart rate for the dogs treated with 100 mg/kg. The blood pressure and heart rate returned to normal by 1 hour after end of infusion.

[5] = Preliminary toxicity study, single IV bolus, beagle dogs; format: in vivo
Protocol: (§1) In a preliminary toxicity study rats and dogs were given a single dose of OPT 101 as an IV bolus. […] When OPT101 was administered to beagle dogs at 50 or 100 mg/kg by bolus IV injection OPT101 was not tolerated due to adverse clinical signs, including prostration, slight salivation, decreased activities, purple or red skin colored in the abdomen ventral, lateral ears or conjunctiva(s), lips, or periorbital, soft stool, medium food-like, red/brown, or small and frothy vomitus, increased respiratory rate, and labored breathing. Clinical pathology effects included increases in leukocyte count, erythrocyte and platelet counts.

[6] = Single bolus IV dose histamine / immune mediator study in rats
[7] = system: bacterial mutation; test: Standard reverse bacterial mutation assay (Ames assay)
Source text: OPT101 was negative in the standard reverse bacterial mutation assay (Ames assay).

[8] = Preliminary toxicity study, single IV bolus, rats; format: in vivo; conditions: 50 or 100 mg/kg bolus IV injection
Protocol: as §1

[9] = system: human platelets; test: Human platelet aggregation in vitro by light transmission aggregometry; format: cell-based
Source text: It has been shown that using an anti-CD154 monoclonal therapeutic approach to interfere with the CD40-CD154 interaction there was efficacy in animal models, but in the clinical trial of one of the monoclonal antibodies there was binding to platelets resulting in emboli. Therefore, the clinical trials were halted (Kawai et al 2000, abstract). To determine if OPT101 has similar effects as the monoclonal antibody, an in vitro study was done with human platelets to determine if OPT101 would affect platelet aggregation, as measured by light transmission aggregometry. Platelet aggregation induced with adenosine diphosphate or collagen were not affected when treated with OPT101 at 0.1, 0.3, 3 or 30 μg/mL. […] Therefore, OPT101 had no impact on human platelet aggregation in vitro.

[10] = NDA 022150; cited from earlier work
[11] = Glucose tolerance and insulin sensitivity after KGYY6; format: in vivo, ApoE −/−mice
[12] = system: Th40 cells; test: Intracellular TGF in Th40 cells from ApoE−/− mice treated with KGYY6; conditions: ApoE−/− mice with cardiovascular disease treated with KGYY6 vs not treated; ex-vivo flow cytometry
Protocol: Th40 cells were purified from ApoE−/−mice with cardiovascular disease as well as from ApoE−/−mice that were treated with KGYY6. Immediately ex-vivo, the cells were stained for CD3, CD4, and CD40 and intracellular TGF and analyzed by flow cytometry. Cells were gated on CD3 then CD4 and CD40 for Th40 cells then levels of TGF were assessed.

[13] = system: conventional CD4 T cells; test: Intracellular IL-10 in conventional CD4 T cells ex-vivo at end of EAE experiment after KGYY6 treatment; design: species or system mice; conditions: draining lymph nodes (dLN); after 33 days; vs untreated animals; p=0.0145
Source text: FIG. 10 provides two graphs which show how KGYY-6 treatment alters IL-10 production by conventional CD4 T cells.
Intracellular cytokine expression profiles were examined in conventional CD4 T cells immediately ex-vivo at the end of the EAE experiment, after 33 days.

[14] = system: CD3+CD4+CD40+(Th40) splenic cells; test: Overnight culture of Th40 splenic cells with KGYY6, inflammatory cytokines; format: cell-based, ApoE−/− mice; conditions: cultured overnight with varying concentrations of KGYY6; vs untreated cells
Protocol: CD3+CD4+CD40+(Th40) splenic cells were purified from ApoE−/− with cardiovascular disease. The cells were cultured overnight in the absence/presence of varying concentrations of KGYY6 peptide.

[15] = 50 and 100 mg/kg IV injection, vs pretest values
[16] = 12.5 mg/kg bolus IV, 1-hour post-treatment

## CSCC[C@H](NC(=O)[C@@H](NC(=O)[C@H](Cc1ccc(O)cc1)NC(=O)[C@H](Cc1ccc(O)cc1)NC(=O)CNC(=O)[C@H](CCCCN)NC(=O)[C@H](CCCCN)NC(=O)[C@H](C)NC(=O)[C@H](Cc1c[nH]c2ccccc12)NC(=O)[C@H](CCC(N)=O)NC(=O)[C@H](CC(C)C)NC(=O)[C@@H](N)C(C)C)[C@@H](C)O)C(=O)N[C@@H](CCCCN)C(=O)N[C@@H](CO)C(=O)N[C@@H](CC(N)=O)C(=O)O [OPT101, VLQWAKKGYYTMKSN]
[1]
  complement activation: no evidence of complement activation
  duration of clinical signs and release of histamine: very transient
[2]; 10 mg/kg
  assessment of infusion reaction clinical signs: non-adverse
[2]; 8-week study, PK after first and last dose
  plasma drug levels versus dose: increased with increasing dose
[2]; 10, 100, or 400 mg/kg/dose
  infusion reactions, incidence: in all treated animals
[2]; 10, 100, or 400 mg/kg/dose once a week for 8 weeks, 30-minute IV infusion
  tolerability: well tolerated
[2]; 100 and 400 mg/kg
  assessment of infusion reaction clinical signs: adverse
[2]; dog, in vivo, dogs, infusion reaction, once weekly for 8 weeks, 30-minute IV infusion, read-out: no observable adverse effect level (NOAEL)
  NOAEL: 10 mg/kg
[2]; dogs, 8-week toxicology study
  thromboemboli: no evidence of thromboemboli
[2]; dogs, up to highest dose of 400 mg/kg, once weekly for 8 weeks, 400 mg/kg
  toxicity other than infusion reaction: no other adverse effects
[2]; over the 8-week study
  drug accumulation: no marked drug accumulation
[3]; 10, 100 or 200 mg/kg/dose once a week for 8 weeks, 30-minute IV infusion
  tolerability: well tolerated and did not result in any adverse effects
[3]; rat, in vivo, rats, once weekly for 8 weeks, 30-minute IV infusion, read-out: no observable adverse effect level (NOAEL)
  NOAEL: 200 mg/kg
[3]; rats, 8-week toxicology study
  thromboemboli: no evidence of thromboemboli
[3]; rats, up to highest dose of 200 mg/kg, once weekly for 8 weeks, 200 mg/kg
  toxicity other than infusion reaction: no other adverse effects
[4]; 0.3 mg/kg
  clinical observations or physiological changes: no clinical observations or physiological changes
[4]; 100 mg/kg
  blood pressure and heart rate: decreases
  time for blood pressure and heart rate to return to normal after end of infusion: ≤ 1 h
[4]; 100 mg/kg, 5 and 30 minutes after start of infusion
  serum levels of histamine: significantly elevated
[4]; 0.3, 1 or 100 mg/kg, 30-minute IV infusion, single dose
  body weight, food consumption, body temperature, respiratory rate and coagulation: no OPT101-related body weight, food consumption, body temperature, respiratory rate and coagulation changes
[4]; 1 and 100 mg/kg, much more severe at 100 mg/kg
  histamine related clinical observations: salivation, vomitus, incontinence, discolored skin, swelling and rash
[4]; single dose, 30-minute IV infusion
  no observable effect level (NOEL): 0.3 mg/kg
[5]; 100 mg/kg
  assessment of clinical chemistry effects: adverse
[5]; [15]
  alanine aminotransferase, aspartate aminotransferase, alkaline phosphatase, γ-glutamyltransferase, urea, creatinine, calcium, phosphorus, total bilirubin, creatine kinase: notable increases
  potassium: decrease
[5]; 50 or 100 mg/kg
  serum C5b-9 complement levels: no increases
[5]; 50 or 100 mg/kg bolus IV
  decrease of fibrinogen (down to): 32%
  increase of prothrombin time: 288%
  leukocyte count, erythrocyte and platelet counts: increases
[5]; 50 or 100 mg/kg bolus IV injection, single dose
  tolerability: not tolerated
[5]; bolus IV
  histopathology evaluation of liver and kidney: no liver or kidney lesions
[6]; [16]
  serum C3 levels (as measured by conversion to human SC5b-9): no decreases
  serum IFN-γ, TNF-α, IL-10, IL-4, IL-5, IL-6, IL-10, or IL-13 levels: no changes
[6]; 12.5 mg/kg bolus IV, 10-minutes post-treatment
  serum histamine levels: increased significantly
[6]; single bolus IV dose 12.5 mg/kg
  clinical observation: consistent with a histamine reaction
[7]
  reverse bacterial mutation (Ames assay): negative
[8]
  mortality: mortality of two rats
[8]; single dose
  tolerability: did not tolerate the treatment
[9]; OPT101 at 30 μg/mL
  spontaneous platelet aggregation: no spontaneous platelet aggregation
[9]; OPT101 at 0.1, 0.3, 3 or 30 μg/mL
  Platelet aggregation induced with adenosine diphosphate or collagen: not affected

## NC(N)=NCCC[C@@H](N)C(=O)N[C@@H](CCCN=C(N)N)C(=O)N1CCC[C@H]1C(=O)N1C[C@H](O)C[C@H]1C(=O)NCC(=O)N[C@@H](Cc1cccs1)C(=O)N[C@@H](CO)C(=O)N1Cc2ccccc2C[C@@H]1C(=O)N1[C@H](C(=O)N[C@@H](CCCN=C(N)N)C(=O)O)C[C@@H]2CCCC[C@@H]21 [icatibant]
[10]
  infusion reaction: causes a reaction due to histamine release that is quickly reversed after end of infusion

## AKKGYY [KGYY6]
[11]; p<0.005
  insulin sensitivity: statistically significant improvement
[11]; p<0.05
  glucose tolerance: statistically significant improvement
[12]
  production of TGF (intracellular, Th40 cells): decrease production of TGF
[13]
  intracellular IL-10 in conventional CD4 T cells: increase in intracellular IL-10
[14]
  inflammatory cytokine IFNγ: varying degrees of reduction
  inflammatory cytokine IL-2: varying degrees of reduction
  inflammatory cytokine IL-17A: varying degrees of reduction

## YKNVKQMAYWLTGKS [scrambled version of OPT101, reference compound]
[1]
  infusion reactions: also elicited

— patent publication US12048734B2, “Bioactive peptides and methods of use thereof” (OP-T LLC, priority 2020, dated 2024)
